Measured values from US9504745B2, “Compositions and methods for cancer treatment using targeted carbon nanotubes” (The Board of Regents of the University of Oklahoma, priority 2007, dated 2016).
Like-named read-outs stand apart in the source and are kept apart here.

How the values were obtained:
4T1 mouse mammary tumors = assay: In vivo laser treatment of implanted 4T1 mammary tumors in mice with SWNT-annexin V complex; set-up: species or system BALB/cJ mice
Experimental: In another embodiment, female BALB/cJ mice, age 6 weeks (received from Jackson Laboratory (Bar Harbor, Me.) were treated. Animal experimentation was not started until the animals were 9 weeks old. The animals were kept in a dedicated room in the animal facility located in the Zoology building of the University of Oklahoma. All of the protocols used involving animals were previously submitted and approved by the Institutional Animal Care and Use Committee (IACUC). All of the animals were placed in appropriate cages with food and water in an adequate environment. Each cage hosted five animals. The anesthetics used were ketamine (100 mg/ml) and xylazine (20 mg/ml). In order to prepare the anesthetic solution, 1 ml of ketamine (100 mg/ml) was mixed with 0.5 ml of xylazine (20 mg/ml) and 8.5 ml of sterile saline solution (0.9% NaCl). The dosage used for each animal was equal to 0.1 ml of the stock solution per 10 grams of body weight. Prior to anesthetizing the animals, each of them was weighted using a scale.
In order to evaluate the ability to eradicate the tumors using this therapy in vivo, it was necessary to implant a suitable cancer cell line in the animals. The 4T1 cell line was chosen for this study, since these cells have the ability to replicate at a fast rate and also develop visible tumors in BALB/c mice in a matter of less than one week after implantation. […] After having the eight T-75 flasks growing for 2 days, there are plenty of cells to inject the animals, for each test. The cells are then lifted from the flasks using ACCUTASE® solution (Innovative Cell Technologies, San Diego, Calif.), using the same procedure as for human endothelial cells. […] Knowing that it is necessary to inject 5×10^5 cells/animal (volume=100 μl), the total number of cells was determined. The cell concentration in the sample was evaluated using the standard cell counting procedure. […]
After irradiation, the tumor volumes were monitored every two days. […] The length and width of the tumors was measured using a digital caliper. The tumor volumes were determined by applying the following formula: […]

[1] = tested on: human endothelial cells with phosphatidylserine exposed by H2O2; assay: Binding of SWNT-annexin V (biotinylated) to human endothelial cells in vitro (streptavidin-HRP/OPD, A450)
Experimental: Purified recombinant annexin V was labeled with biotin for detection (SureLINK chromophoric biotin labeling kit; KPL, Gaithersburg, Md.) with a 40-molar excess of biotin. Biotin labeling of annexin V has been found previously not to impair the PS-binding of annexin V. The following procedure was used to measure the binding of the SWNT-annexin V (biotinylated) to human endothelial cells in vitro.
Human endothelial cells (American Type Culture Collection, Manassas, Va.) were grown as monolayers in T-75 flasks. […] The cells were fixed by adding 100 μl of phosphate buffered saline (PBS) buffer containing 0.25% glutaraldehyde and Ca^2+ (2 mM). Excess aldehyde groups were quenched by incubating with 50 mM of NH4Cl (100 μl) diluted in PBS buffer containing Ca^2+ (2 mM) for 5 minutes. The SWNT-annexin V conjugate was diluted in 0.5% BSA diluted in PBS buffer and Ca^2+ (2 mM) with an initial concentration of […]. This concentrated fusion protein solution was serially diluted 2-fold until a final concentration of 6.7 μM. SWNT-CMC-annexin V (300 μl) was added to wells in the increasing concentration of SWNT-CMC-annexin V. For each concentration of SWNT-CMC-annexin V, the experiment was done in duplicate and incubated for 2 hours. Plates were washed with 0.5% BSA diluted in PBS buffer and Ca^2+ (2 mM) (300 μl). 300 μl of streptadivin-HRP (horseradish peroxidase) (2 μg/ml) was added and incubated for 1 hour at room temperature. The plate was then washed with PBS (300 μl), and the chromogenic substrate O-phenylenediamine (OPD, 300 μl) was added and incubated for 30 minutes. 100 μl of the supernatant was then transferred to 96-well plates, and absorbance was measured at 450 nm (Biotek KC4 microtiter plate reader) using a blank that omits the addition of SWNT-annexin V described above.
The data obtained above for the binding of SWNT-CMC-annexin V to human endothelial cells in vitro was used in the determination of the dissociation constant (Kd). […]

human endothelial cells [2] = tested on: human endothelial cells
Experimental: The effects of irradiation of SWNTs bound to endothelial cells were tested in vitro. […] The following procedure was used to treat human endothelial cells in vitro with SWNT-CMC-annexin V bound.
Cells were grown using F12K media containing 10% FBS until they reach 85% confluence in T-75 flasks, and the cells were then counted using a hemocytometer. Cancer cells (5×10^4) were transferred to 24 well plates (6 plates, with 3 wells per plate containing cells) and grown until 85% confluence was reached. Two extensive dialyses were performed (with a total dilution factor of 1,000,000×) in order to remove the sodium azide from the SWNT-CMC-biotinylated annexin V. The first dialysis for 3 hours (1000×) was performed using modification buffer (100 mM sodium phosphate, 150 mM NaCl, pH 7.2-7.4). The buffer was changed and the dialysis continued for 4 more hours. 1 ml of the suspension of SWNT-CMC-biotinylated annexin V was used. PS was exposed on the surface of cells by the addition of hydrogen peroxide (1 mM), and the cells were treated with 300 μl binding buffer containing the F12K media containing 1 mM of H2O2 for 1 hour at 37° C. The plates were washed 4× with F12K media (containing 10% FBS) (300 μl), and SWNT-CMC-biotinylated-annexin V (300 μl) was added to wells at a concentration of 20 nM. In order to obtain this concentration, the protein was diluted using F12K media (containing 10% FBS plus 2 mM Ca^2+). For each plate, the experiment was done in triplets. The plates were incubated for 2 hours in the incubator and then washed 4× with F12K media (containing 10% FBS plus 2 mM Ca^2+) (300 μl). […] Cell viability was evaluated one hour later by adding Alamar Blue in an amount equal to 10% of culture media (30 μl of Alamar Blue+300 μl of media) volume to the wells. […] Fluorescence was then measured at 590 nm (using excitation at 530 nm). […] The cells that were attached were treated with trypsin, and the cells were combined in the 96-well plates and counted in a hemocytometer. […]

human endothelial cells [3] = assay: Laser irradiation of human endothelial cells with SWNT-Fmoc-NH-PEG-NHS-annexin V bound (Alamar Blue); type: cell-based; conditions: 20 nM protein
Experimental: The procedure described above was applied using the human annexin V protein but any Annexin described herein could be used. […] The media was warmed up in the incubator at 37° C. and then removed from the wells. […] For each plate, the experiment was performed in triplets.
The samples (300 μl/well) were then transferred to a 96-microtiter plate, and fluorescence was measured at 590 nm (using excitation at 530 nm).

human endothelial cells [4] = assay: Laser treatment of human endothelial cells with SWNT-annexin V complex, SDS method (Alamar Blue); type: cell-based
Experimental: SWNTs with annexin V conjugated using the Fmoc-NH-PEG-NHS linker added via the SDS method were used in a laser test with endothelial cells. […] The endothelial cells were transferred to 24 well plates (5×10^4 cells per well) and grown until 100% confluence was reached. A separate plate was used for each different treatment. The media was warmed up in the incubator at 37° C., and the media was removed from the wells. […] For each plate, the experiment was done with two or three wells.
300 μl of F12K media was added with 2 mM Ca^2+ to the wells, and the laser treatment was performed on each well using a beam with a diameter of 1.8 cm, power level of 3.9 W, and beam time of 130 s (energy density=199 J/cm^2).
Then, SWNT-annexing V was added to the wells as described above.

[5] = tested on: non-small-cell lung cancer (NSCLC) with pleural spread; conditions: 22 patients, photosensitizer 24 hours before surgery, 603 nm light; cited from earlier work
[6] = patients; cited from earlier work
[7] = human endothelial cells, FIG. 1

O=P1(N(CCCl)CCCl)NCCCO1 (centres unmarked) [CY, cyclophosphamide]
effect of addition of CY on tumor volume reduction (4T1 mouse mammary tumors; CY 50 mg/kg i.p. added to SWNTs+Laser): did not translate into a significant difference
effect of CY on metastatic nodules compared to laser+SWNT treatment alone (4T1 mouse mammary tumors; lungs): did not lead to fewer metastatic nodules
effect of addition of CY on survival (4T1 mouse mammary tumors; treatment group that received CY compared to the one that did not): increased survival

SWNT-CMC-annexin V: Recombinant annexin V (biotinylated) conjugated via EDC/NHS to carboxymethylcellulose (30 kDa) adsorbed to single-walled carbon nanotubes
Kd ([1]; binding to human endothelial cells in vitro, PS exposed with 1 mM H2O2, fit with Prism 5, read-out: dissociation constant (Kd)): 2.9 nM
binding to the cells [1, 7]: binding to the cells increased as the annexin V-SWNT complex concentration increased
concentration above which transition from negligible binding to measurable binding occurred [1, 7]: > 1000 pM
difference in RFU between cells with nanotubes and cells without nanotubes (human endothelial cells [2]): no significant difference
cell number at 4 W/cm^2 relative to 0 W/cm^2 (human endothelial cells [2]; 20 nM complex bound, 980 nm, 20 J/cm^2, hemocytometer): 50%
difference in RFU between cells with nanotubes and cells without nanotubes (human endothelial cells [2]; power level of 2 W/cm^2, 980 nm, 20 J/cm^2): no significant difference

SWNT-Fmoc-NH-PEG-NHS-annexin V: Human annexin V attached via Fmoc-NH-PEG-NHS linker adsorbed to SWNTs dispersed with sodium cholate
effect on the cells (Alamar Blue) (human endothelial cells [3]; with laser 980 nm 1.50 W/cm^2 for 130 seconds (195 J/cm^2), H2O2, 85% confluence): killing virtually all of the cells
effect on the cells (Alamar Blue) (human endothelial cells [3]; without laser): no effect on the cells

SWNT-annexin V: SWNTs with annexin V conjugated using the Fmoc-NH-PEG-NHS linker added via the SDS method
cell viability (human endothelial cells [4]; 0.89 mg/L SWNT, 299 J/cm^2, hydrogen peroxide, versus 199 J/cm^2): again lower
reduction of cell viability compared with untreated cells (human endothelial cells [4]; 0.89 mg/L SWNTs, laser energy 199 J/cm^2, hydrogen peroxide, 100% confluent cells): 60%
effect on cell viability (human endothelial cells [4]; laser at 199 J/cm^2, 0.06-0.89 mg/L SWNT, no H2O2, significant (p<0.05) at 0.89 mg/L): concentration-dependent effect on cell viability
effect on the cells (Alamar Blue) (human endothelial cells [4]; without laser (plate 2, 0.06 mg/L SWNT)): no effect on the cells

porfimer sodium [porfirmer sodium]
median survival [5]: 21 months
side effect [6]: prolonged skin photosensitivity
